Test results from patent publication US4024276A, “Xanthone-2-carboxylic acid compounds” (Roussel-UCLAF, priority 1974, dated 1977).

What follows are molecules tested on cutaneous anaphylaxis (assay: Passive cutaneous anaphylaxis in rats (method of Ovary), anti-allergic activity). Settings: Rattus norvegicus; male rats 180-220 g; intravenous, followed immediately by antigen/Evans blue challenge; anti-ovalbumin antiserum ID 3 days before; compounds used as tris(hydroxymethyl)methylamine salts; read-out: ED50 (dose of drug giving 50% inhibition).
Type: in vivo, rat
Procedure: Evans blue dye was injected with the antigen to act as a marker to assess the severity of the local response which is inhibited by anti-allergic compounds. Groups of 7 male rats weighing 180 to 220 g were used in this test.
Preparation of antigen for sensitization (such as alum precipitated ovalbumin) was effected by washing 120 grams of Al(OH)3 gel in 140 mls of saline solution (use of a macerator facilitates mixing). Then, the product was centrifuged at 3,000 r.p.m. for about 10 minutes and the precipitate was responded with 300 mls of albumin egg powder (1.3 mg/ml) in saline solution and allowed to stand for 30 minutes. Then, the mixture was centrifuged at 3,000 r.p.m. for 10 minutes and the wet precipitate was weighed and to each gram weight 1 ml of saline solution was added. The antigen was stored in the refrigerator and was a quantity sufficient for 60 rats for a 3 day sensitization program.
Preparation of antiserum (such as anti-ovalbumin) was effected by injecting 1 ml of the alum precipitated ovalbumin subcutaneously into the rats on days 0, 2 and 4. The rats were bled on day 14 either by cardiac puncture or via the dorsal abdominal aorta and equal quantities of serum from each animal were pooled and thoroughly mixed. 2 ml aliquots were stored at -20° C in plastic tubes.
For sensitization, rats were anaesthetized with Nembutal (40-60 mg/kg i.p.) and were then sensitized by four ID injections (0.1 ml each) on their shaved backs. The animals were then left for a period of three days to develop sensitization.
For the challenge, the sensitized rats were anaesthetized and challenged intravenously via the superficial penile vein with the anti-allergic compound, followed immediately by 1 ml of an antigen/Evans blue mixture (1 mg albumin egg powder in 0.5 ml saline solution plus 0.5 ml of 1% Evans blue). The injections were speeded up by using an automatic 1 ml self filling glass syringe. The "challenged" rats were killed after 30 minutes and their skin on the dorsal surface was removed. The degree and area of blueing, proportional to the anaphylactic reaction, was assessed on a four point scoring system as follows:
1. Total scores for sites, 1, 2, 3 and 4 = X
2. Mean value of X for each group = X
3. X t = X for test group X c = X for control group [formula]

SMILES | ED50 [mg/kg]
CC(=O)N=S(C)(=O)c1ccc2oc3ccc(C(=O)O)cc3c(=O)c2c1 (stereo not shown) [7-(N-acetyl-S-methylsulfonimidoyl)-xanthone-2-carboxylic acid] | 0.065
CS(=O)(=NC(=O)c1ccccc1)c1ccc2oc3ccc(C(=O)O)cc3c(=O)c2c1 (stereo not shown) [7-(N-benzoyl-S-methylsulfonimidoyl)-xanthone-2-carboxylic acid] | 0.68
CCCCCCc1cc(S(C)(=O)=NC(N)=O)cc2c(=O)c3cc(C(=O)O)ccc3oc12 (stereo not shown) [7-(N-carbamoyl-S-methylsulfonimidoyl)-5-(n-hexyl)-xanthone-2-carboxylic acid] | 0.008
CCCCCCc1cc(S(C)(=N)=O)cc2c(=O)c3cc(C(=O)O)ccc3oc12 (stereo not shown) [7-(S-methylsulfonimidoyl)-5-(n-hexyl)-xanthone-2-carboxylic acid] | 0.0028
CCCCCOc1cc(S(C)(=N)=O)cc2c(=O)c3cc(C(=O)O)ccc3oc12 (stereo not shown) [7-(S-methylsulfonimidoyl)-5-(n-pentyloxy)-xanthone-2-carboxylic acid] | 0.0035
Cc1ccc(S(=O)(=O)N=S(C)c2ccc3oc4ccc(C(=O)O)cc4c(=O)c3c2)cc1 (stereo not shown) [7-[N-(p-toluenesulfonyl)-S-methylsulfimidoyl]-xanthone-2-carboxylic acid] | 0.43

Same assay, conditions: male rats 180-220 g; intravenous, followed immediately by antigen/Evans blue challenge; anti-ovalbumin antiserum ID 3 days before; compounds used as tris(hydroxymethyl)methylamine salts

SMILES | ED50 (dose of drug giving 50% inhibition) [mg/kg]
CS(=N)(=O)c1ccc2oc3ccc(C(=O)O)cc3c(=O)c2c1 (stereo not shown) [7-(S-methylsulfonimidoyl)-xanthone-2-carboxylic acid] | 0.033
